Like-named read-outs stand apart in the source and are kept apart here.
How the values were obtained:
primary human T-cells [1] = experiment: Proliferation assay after 5 days (CellTiter-Glo, CD3 stimulation; PBS counter screen); type: cell-based; conditions: Homo sapiens, T-cell, 120 h, CD3 stimulation; for Emax: 5 days, normalized to reference compound A1 as stimulator control = 100%, DMSO neutral control, read-out: Emax proliferation (% activation); for EC50: primary human T-cells, CellTiter-Glo after 5 days, EC50 of fitted sigmoidal curve, read-out: Tcell Proliferation CD3 EC50
In short: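 ATP-based luminescence (CellTiter-Glo 2.0, room temperature) measured proliferation 5 days after compound addition to CD3-stimulated or unstimulated primary human T-cells. Flags marked compounds that lowered viability or activated unstimulated cells.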

primary human T-cells [2] = test system: primary human T-cells

SMILES | Emax (primary human T-cells [1]) [%] | EC50 (primary human T-cells [1]) [nM] | EC50 (primary human T-cells [2]) [nM]
N[C@H]1CS(=O)(=O)c2ccc(-c3nnc(N4CCOCC4)o3)cc2N(Cc2ccc(Cl)cc2)C1=O [Example 410, (3R)-3-amino-5-[(4-chlorophenyl)methyl]-7-(5-morpholino-1,3,4-oxadiazol-2-yl)-1,1-dioxo-2,3-dihydro-1λ^6,5-benzothiazepin-4-one] | 109 | 1160 | 7130
N[C@H]1CS(=O)(=O)c2cc(F)c(-c3nnc(N4CC5COCC(C4)C5(F)F)o3)cc2N(Cc2ccc(Cl)cc2)C1=O [Example 476, (3R)-3-amino-5-[(4-chlorophenyl)methyl]-7-[5-(9,9-difluoro-3-oxa-7-azabicyclo[3.3.1]nonan-7-yl)-1,3,4-oxadiazol-2-yl]-8-fluoro-1,1-dioxo-2,3-dihydro-1λ^6,5-benzothiazepin-4-one] | 95 | 455 | 8680
CC(C)(F)c1nc(-c2cc3c(cc2F)S(=O)(=O)C[C@H](N)C(=O)N3Cc2ccc(F)cc2)no1 [Example 358, (3R)-3-amino-8-fluoro-7-[5-(1-fluoro-1-methyl-ethyl)-1,2,4-oxadiazol-3-yl]-5-[(4-fluorophenyl)methyl]-1,1-dioxo-2,3-dihydro-1λ^6,5-benzothiazepin-4-one] | 127 | 1860 | 9450
CN(C)CCC(C)(C)c1nnc(-c2cc3c(cc2F)S(=O)(=O)C[C@H](N)C(=O)N3Cc2ccc(Cl)cc2)o1 [Example 140, (3R)-3-amino-5-[(4-chlorophenyl)methyl]-7-[5-[3-(dimethylamino)-1,1-dimethyl-propyl]-1,3,4-oxadiazol-2-yl]-8-fluoro-1,1-dioxo-2,3-dihydro-1λ^6,5-benzothiazepin-4-one] | 70 | 5350 | 3880
CC(C)(CC(F)(F)F)Nc1nnc(-c2cc3c(cc2F)S(=O)(=O)C[C@H](N)C(=O)N3Cc2ccc(Cl)cc2)o1 [Example 494, (3R)-3-amino-5-[(4-chlorophenyl)methyl]-8-fluoro-1,1-dioxo-7-[5-[(3,3,3-trifluoro-1,1-dimethyl-propyl)amino]-1,3,4-oxadiazol-2-yl]-2,3-dihydro-1λ^6.5-benzothiazepin-4-one] | 118 | 464 | 1200
N[C@H]1CS(=O)(=O)c2cc(F)c(-c3nnc(N4CCC(F)(F)CC4)o3)cc2N(Cc2ccc(Cl)cc2)C1=O [Example 480, (3R)-3-amino-5-[(4-chlorophenyl)methyl]-7-[5-(4,4-difluoro-1-piperidyl)-1,3,4-oxadiazol-2-yl]-8-fluoro-1,1-dioxo-2,3-dihydro-1λ^6,5-benzothiazepin-4-one] | 152 | 162 | < 15.1
CC(C)(CN1CCS(=O)(=O)CC1)c1nnc(-c2cc3c(cc2F)S(=O)(=O)C[C@H](N)C(=O)N3Cc2ccc(Cl)cc2)o1 [Example 138, (3R)-3-amino-5-[(4-chlorophenyl)methyl]-7-[5-[2-(1,1-dioxo-1,4-thiazinan-4-yl)-1,1-dimethyl-ethyl]-1,3,4-oxadiazol-2-yl]-8-fluoro-1,1-dioxo-2,3-dihydro-1λ^6,5-benzothiazepin-4-one] | 120 | 1510 | 3470
N[C@H]1CS(=O)(=O)c2cc(F)c(-c3nnc(-c4ccc(F)cn4)o3)cc2N(Cc2ccc(Cl)cc2)C1=O [Example 135, (3R)-3-amino-5-[(4-chlorophenyl)methyl]-8-fluoro-7-[5-(5-fluoro-2-pyridyl)-1,3,4-oxadiazol-2-yl]-1,1-dioxo-2,3-dihydro-1λ^6,5-benzothiazepin-4-one] | 93 | 1050 | 2900
CC(C)(C)c1nnc(-c2cc3c(cc2F)S(=O)(=O)C[C@H](N)C(=O)N3Cc2ccc(C3(O)COC3)cc2)o1 [Example 239, (3R)-3-amino-7-(5-tert-butyl-1,3,4-oxadiazol-2-yl)-8-fluoro-5-[[4-(3-hydroxyoxetan-3-yl)phenyl]methyl]-1,1-dioxo-2,3-dihydro-1λ^6,5-benzothiazepin-4-one] | 69 | 5100 | 5580

Reference: patent US20240368150A1 (Hoffmann-La Roche Inc., priority 2021, published 2024)
